Tested on: T1, BK channel (large-conductance Ca2+-activated K+ channel) of cricket oviduct myocytes
T1 construct: gene slo; native channel in isolated adult female lateral oviduct myocytes; single-channel patch clamp; not molecularly identified; homotetramer expected, auxiliary subunits unknown
Assay: cell-attached single-channel patch clamp, current amplitude, pipette backfill
Format: cell-based, Gryllus bimaculatus
Settings: extracellular side; open-channel block; Hill coefficient 1.0; pipette solution 140 mM KCl, 1.6 mM CaCl2, pH 7.4; 22–27°C; counterion not given
Source text: cell-attached single-channel patch clamp, current amplitude, pipette backfill on BK channel (large-conductance Ca2+-activated K+ channel) of cricket oviduct myocytes | inhibitory effect on the current amplitude of a single BK channel with an IC50 value

CC[N+](CC)(CC)CC [TEA, tetraethylammonium]
IC50: 319 ± 68.8 µM

From publication PMC10926482, “BK Channels Are Activated by Functional Coupling With L-Type Ca^2+ Channels in Cricket Myocytes” (Frontiers in Insect Science, 2021)
